The structures appear in SMILES notation.

As usually defined, the IC50 is the concentration that gives 50% inhibition.

In assay [1] the target is T1, Alkylglycerol monooxygenase (AGMO) (Rattus norvegicus, UniProt A0JPQ8).
T1 construct: native enzyme in rat liver microsomes
T1 sequence (A0JPQ8 1-447): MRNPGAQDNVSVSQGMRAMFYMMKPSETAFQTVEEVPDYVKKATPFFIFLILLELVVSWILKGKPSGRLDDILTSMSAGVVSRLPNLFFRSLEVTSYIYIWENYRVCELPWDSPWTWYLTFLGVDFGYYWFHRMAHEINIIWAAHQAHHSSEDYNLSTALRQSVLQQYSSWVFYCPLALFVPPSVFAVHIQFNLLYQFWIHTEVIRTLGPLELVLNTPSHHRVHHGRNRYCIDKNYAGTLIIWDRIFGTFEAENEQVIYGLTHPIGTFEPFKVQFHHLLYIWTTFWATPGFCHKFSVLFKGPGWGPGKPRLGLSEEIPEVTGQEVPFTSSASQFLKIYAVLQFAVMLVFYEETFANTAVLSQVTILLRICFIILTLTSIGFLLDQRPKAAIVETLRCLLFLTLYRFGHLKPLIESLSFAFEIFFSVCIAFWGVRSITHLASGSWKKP
The assay is described as follows: HPLC fluorescence activity assay with 1-O-pyrenedecyl-sn-glycerol in rat liver microsomes, coupled to FALDH (FALDH not inhibited). It is filed as biochemical.

Assay [2] concerns the target T2, phenylalanine hydroxylase (PAH) (Rattus norvegicus, UniProt P04176).
T2 construct: rat PAH maltose fusion protein, expressed in E. coli
T2 sequence (P04176 2-453): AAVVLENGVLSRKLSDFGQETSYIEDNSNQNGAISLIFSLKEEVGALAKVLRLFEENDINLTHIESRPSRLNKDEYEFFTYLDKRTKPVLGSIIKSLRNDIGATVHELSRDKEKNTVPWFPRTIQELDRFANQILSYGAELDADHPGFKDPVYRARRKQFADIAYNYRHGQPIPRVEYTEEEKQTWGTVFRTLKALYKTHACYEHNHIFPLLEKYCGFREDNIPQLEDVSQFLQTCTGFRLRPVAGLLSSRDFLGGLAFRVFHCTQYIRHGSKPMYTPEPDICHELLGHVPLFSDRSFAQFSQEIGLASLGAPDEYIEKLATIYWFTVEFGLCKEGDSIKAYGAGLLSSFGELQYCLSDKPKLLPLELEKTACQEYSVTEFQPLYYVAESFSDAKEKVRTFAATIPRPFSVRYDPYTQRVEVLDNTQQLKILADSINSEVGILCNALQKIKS
Description: HPLC tyrosine fluorescence assay with purified recombinant PAH. The class given is biochemical.

For `CC1Nc2nc(N(C)C)[nH]c(=O)c2NC1C` (centres unmarked) [compound 6, 2-(dimethylamino)-6,7-dimethyl-5,6,7,8-tetrahydro-4(3H)-pteridinone], the IC50 in assay [1] is roughly 50 µM; in assay [2] it was 360 to 430 µM.
